Test results reported in paper PMC10849753, “Antiproliferative activity of platinum(II) and copper(II) complexes containing novel biquinoxaline ligands” (Metallomics: Integrated Biometal Science, 2024).

What was measured:
Assay type in all cases: cell-based, human
HeLa cells [1] = assay: Matrigel invasion analysis; conditions: 6.25 and 12.5 μM, 24 h, vs negative control
Method: The analysis was completed with U87 and HeLa cell lines to assess the metastatic potential of tumor cells using transwell inserts with an 8 μm pore size polycarbonate membrane (Corning Costar, Cambridge, MA, USA) coated with 1/5 of Matrigel (Beckton Dickinson, Bedford, MA, USA) and air-dried at room temperature. After seeding the U87 and HeLa cell lines (3 × 10^5cells/insert), the complex concentrations were selected as 6.25 or 12.5 μM and incubated at 37°C in a humidified incubator with 5% CO2 for 24 h. The cell monolayers in the transwell inserts were fixed with ice-cold methanol and stained with 0.05% crystal violet for the analysis. The invasion of the cells to the basolateral side of the inserts was investigated using a light microscope with 40× magnification.

prostate PC3 cells = assay: ROS production, DCFDA assay; conditions: 6.25 to 100 μM, 24 h
Method: (§1) The reactive oxygen species (ROS) formation on the selected cell lines upon exposure to the synthesized Cu(II) and Pt(II) complexes was investigated using the oxidation-sensitive dye, 2ʹ,7ʹ-dichlorofluorescein diacetate (DCFDA, #D6883 Sigma-Aldrich). The cell lines (A172, LN229, U87, HeLa, MDA-231, PC-3, A549, and CHO-K1) were seeded (6 × 10^3 cells/well) into the 96-well plates and incubated at 37°C and 5% CO2 for 24 h. After that, the Cu(II) and Pt(II) complexes, at a concentration range of 6.25 to 100 μM, were added to the cell monolayers. Hydrogen peroxide (H2O2), at concentrations from 50 to 500 μM, was utilized as a positive control. The following day, 5 μM of DCFDA in PBS was added to the cell monolayers and, then, the plate was incubated for 30–45 min. Consequently, the fluorescence intensity was measured with 485 nm excitation and 535 nm emission wavelengths using a microplate reader. The fluorescence values of each treatment were normalized to the negative control, including only growth medium without any treatment. The assay was repeated in triplicate.

[2] = tested on: lung A549, cervix HeLa, and breast MD-A231 cells; assay: ROS production, DCFDA assay; conditions: MDA-231, 6.25 to 100 μM, 24 h, vs negative control
Method: as §1

U87 cells [3] = assay: In vitro comet assay; conditions: U87, 25 and 50 μM, 24 h
Method: (§2) Commet assay was performed with U87 and HeLa cell lines (4 × 10^4 cells/well) to detect DNA damage in the individual eukaryotic cells, where 25 or 50 μM Cu(II) or Pt(II) complexes were added to the cells and incubated for 24 h. Subsequently, the comet assay was performed as described before.[31] The DNA damage was evaluated by calculating the DNA tail percentage using the following equation: DNA tail % = 100× tailing DNA density/cell DNA density. The assay was repeated twice, and 50 individual cells were involved for each treatment.

HeLa cells [4] = assay: Apoptosis, TUNEL assay; conditions: 50 and 100 μM, 24 h
Method: (§3) The sensitive U87 and HeLa cell lines, selected according to the results of the IC50 values of the examined Cu(II) and Pt(II) complexes, were seeded at a seeding cell number of 5 × 10^4 cells on the 12 mm round cover slips placed in the 24-well plate and incubated at 37°C and 5% CO2 for 24 h. The following day, the Cu(dpq)Cl2, Cu(dtq)Cl2, Pt(dpq)Cl2 and Pt(dtq)Cl2 complexes were freshly prepared and added at a range of 50 and 100 μM to the cell monolayers. After a 24 h incubation time, the cell monolayers were fixed with 4% paraformaldehyde for 15 min at room temperature and, then, the terminal deoxynucleotidyl transferase (TdT)-mediated dUTP nick end labeling (TUNEL) method was applied to detect the DNA damage associated with apoptosis. A commercial assay kit, In Situ Cell Death Detection Kit (Roche, #11767291910), was used for this purpose in accordance to the manufacturer's instructions. The experiment was repeated twice with the tested cell lines, and images were recorded with using a Leica DMI 6000 fluorescence microscope with 40× magnification.

U87 cells [5] = assay: Apoptosis, TUNEL assay; conditions: U87, 50 and 100 μM, 24 h
Method: as §3

A172 cells = assay: MTT cell viability assay
Method: Cell culture growth conditions: Selected cancer cell lines from different origins, including human glioblastoma A172 (CRL-1620), LN229 (CRL-2611), U87 (HTB-14) cell lines, human cervix HeLa (ATCC, CCL-2), human breast MDA -231 (HTB-26), human prostate PC-3 (ATCC, CRL-1435), human lung A-549 (CCL-185), and non-cancer Chinese hamster ovary CHOK1 cell line (CCL61) (which was used as control) were purchased from American Type Culture Collection (ATCC, USA). These cultures were grown in Dulbecco's modified Eagle's medium-F12 (DMEM/F12, #D0547, Sigma-Aldrich) supplemented with 5% fetal bovine serum (#10500, Gibco) and 1% antibiotic-antimycotic (#15240, Gibco), and incubated at 37°C and 5% CO2. They were harvested and used for the following assays after reaching 70–80% confluency.
The used cell lines (A172, LN229, U87, HeLa, MDA-231, PC-3, A549, and CHO-K1) were harvested and seeded (6 × 10^3 cells/well) into the 96-well plates and incubated at 37°C and 5% CO2 for 24 h. After that, the synthesized Cu(II) and Pt(II) complexes, at a concentration range of 6.25 to 100 μM in DMEM-F12, were added to the cell monolayers and incubated at 37°C and 5% CO2 for 24, 48, and 72 h. The dose–response relationships of the synthesized complexes were determined by using an MTT colorimetric agent (3-[4,5-dimethylthiazol-2-yl]-2,5-diphenyltetrazolium bromide, #M5655, Sigma-Aldrich), which is reduced by the mitochondrial enzymes of the metabolically active live cells and converted into a purple formazan product. The MTT stock solution was later dissolved in a phosphate buffer solution (PBS, 5 mg/ml, w/v) and, then, 5 μg/ml of MTT in DMEM was added into each well and incubated at 37°C and 5% CO2 for 4 h. DMSO (#D 8418, Sigma-Aldrich), as a dissolving solution for formazan crystals, was added into each well and placed in a shaker for 2 h. The absorbance at a test wavelength of 570 nm and a reference wavelength of 630 nm was measured on a microplate reader.

[6] = tested on: A172, LN229, U87, A549, Hela, PC-3, and MDA-231 cells; assay: ROS production, DCFDA assay, all used cell lines; conditions: all used cell lines; 6.25 to 100 μM, 24 h
Method: as §1

HeLa cells [7] = assay: In vitro comet assay; conditions: 25 and 50 μM, 24 h
Method: as §2

For `[Cl][Pt][Cl].c1csc(-c2nc3ccc(-c4ccc5nc(-c6cccs6)c(-c6cccs6)nc5c4)cc3nc2-c2cccs2)c1` [Pt(ttbq)Cl2], the anti-invasive effect (HeLa cells [1]) was “higher potency to prevent the invasion”, the ROS formation (prostate PC3 cells) was “no formation” and the “increase of ROS production” value [2] was about 2 fold. For the same compound, the “genotoxicity (DNA damage, comet)” value (U87 cells [3]) was “caused DNA damage on the U87 cells at both concentrations”, the “apoptosis (DNA fragmentation, TUNEL)” value (HeLa cells [4]) was “apoptosis on HeLa cells was only observed” and the “apoptosis (DNA fragmentation, TUNEL)” value (U87 cells [5]) was “none of which induced any apoptosis”. It also gave an IC50 (A172 cells; A172, 24 h exposure) of 93.5 ± 18.4 µM, an IC50 (A172 cells; A172, 48 h exposure) of 65.5 ± 17.7 µM and an IC50 (A172 cells; A172, 72 h exposure) of 49.5 ± 5.73 µM.

In the case of `[Cl][Cu][Cl].c1ccc(-c2nc3ccc(-c4ccc5nc(-c6ccccn6)c(-c6ccccn6)nc5c4)cc3nc2-c2ccccn2)nc1` [Cu(tpbq)Cl2], the anti-invasive effect (HeLa cells [1]) is reported as “did not have any anti-invasive effect”, the “apoptosis (DNA fragmentation, TUNEL)” value (HeLa cells [4]) is reported as “none of which induced any apoptosis” and the “apoptosis (DNA fragmentation, TUNEL)” value (U87 cells [5]) is reported as “none of which induced any apoptosis”. For the same compound, the IC50 (A172 cells; A172, 24 h exposure) was over 100 µM, the IC50 (A172 cells; A172, 48 h exposure) was over 100 µM and the IC50 (A172 cells; A172, 72 h exposure) was 92 ± 7.46 µM.

`[Cl][Cu][Cl].c1csc(-c2nc3ccc(-c4ccc5nc(-c6cccs6)c(-c6cccs6)nc5c4)cc3nc2-c2cccs2)c1` [Cu(ttbq)Cl2] was tested, and the ROS formation [6] was “highest increase in the level of ROS formation”, the anti-invasive effect (HeLa cells [1]) was “high anti-invasive effects” and the ROS formation (prostate PC3 cells) was “no formation”. For the same compound, the “increase of ROS production” value [2] was about 2 fold, the “genotoxicity (DNA damage, comet)” value (HeLa cells [7]) was “only genotoxic on the Hela cells at a high concentration (50 μM)” and the “genotoxicity (DNA damage, comet)” value (U87 cells [3]) was “caused DNA damage on the U87 cells at both concentrations”. The “apoptosis (DNA fragmentation, TUNEL)” value (HeLa cells [4]) was “none of which induced any apoptosis”, the “apoptosis (DNA fragmentation, TUNEL)” value (U87 cells [5]) was “apoptotic potential of the U87 cells was observed” and the IC50 (A172 cells; A172, 24 h exposure) was 69.44 ± 0.19 µM. The IC50 (A172 cells; A172, 48 h exposure) was 63.9 ± 3.56 µM and the IC50 (A172 cells; A172, 72 h exposure) was 57.4 ± 13.7 µM.

`[Cl][Pt][Cl].c1ccc(-c2nc3ccc(-c4ccc5nc(-c6ccccn6)c(-c6ccccn6)nc5c4)cc3nc2-c2ccccn2)nc1` [Pt(tpbq)Cl2] was tested, and the ROS formation [6] was “did not induce any ROS formation”, the anti-invasive effect (HeLa cells [1]) was “high anti-invasive effects” and the “apoptosis (DNA fragmentation, TUNEL)” value (HeLa cells [4]) was “none of which induced any apoptosis”. For the same compound, the “apoptosis (DNA fragmentation, TUNEL)” value (U87 cells [5]) was “apoptotic potential of the U87 cells was observed”, the IC50 (A172 cells; A172, 24 h exposure) was 94.3 ± 12.3 µM and the IC50 (A172 cells; A172, 48 h exposure) was 39.4 ± 15.8 µM. The IC50 (A172 cells; A172, 72 h exposure) was 73.67 ± 0.28 µM.
